Source: paper PMC6952396, “Structural basis for itraconazole-mediated NPC1 inhibition” (Nature Communications, 2020)
“Also recorded” adds a separate entry of the source.

Tests used:
[1] = target: T1, NPC1 (Cricetulus griseus, UniProt Q9JLG3); conditions: cited from earlier work; for inhibition of P-X cross-linking to NPC1: cultured cells
T1 construct: CHO-7 cells in the medium are deprived of cholesterol to induce the LDL receptors biosynthesis; endogenous in cells; host or cells: CHO-7 cells
T1 sequence (Q9JLG3 23-1277): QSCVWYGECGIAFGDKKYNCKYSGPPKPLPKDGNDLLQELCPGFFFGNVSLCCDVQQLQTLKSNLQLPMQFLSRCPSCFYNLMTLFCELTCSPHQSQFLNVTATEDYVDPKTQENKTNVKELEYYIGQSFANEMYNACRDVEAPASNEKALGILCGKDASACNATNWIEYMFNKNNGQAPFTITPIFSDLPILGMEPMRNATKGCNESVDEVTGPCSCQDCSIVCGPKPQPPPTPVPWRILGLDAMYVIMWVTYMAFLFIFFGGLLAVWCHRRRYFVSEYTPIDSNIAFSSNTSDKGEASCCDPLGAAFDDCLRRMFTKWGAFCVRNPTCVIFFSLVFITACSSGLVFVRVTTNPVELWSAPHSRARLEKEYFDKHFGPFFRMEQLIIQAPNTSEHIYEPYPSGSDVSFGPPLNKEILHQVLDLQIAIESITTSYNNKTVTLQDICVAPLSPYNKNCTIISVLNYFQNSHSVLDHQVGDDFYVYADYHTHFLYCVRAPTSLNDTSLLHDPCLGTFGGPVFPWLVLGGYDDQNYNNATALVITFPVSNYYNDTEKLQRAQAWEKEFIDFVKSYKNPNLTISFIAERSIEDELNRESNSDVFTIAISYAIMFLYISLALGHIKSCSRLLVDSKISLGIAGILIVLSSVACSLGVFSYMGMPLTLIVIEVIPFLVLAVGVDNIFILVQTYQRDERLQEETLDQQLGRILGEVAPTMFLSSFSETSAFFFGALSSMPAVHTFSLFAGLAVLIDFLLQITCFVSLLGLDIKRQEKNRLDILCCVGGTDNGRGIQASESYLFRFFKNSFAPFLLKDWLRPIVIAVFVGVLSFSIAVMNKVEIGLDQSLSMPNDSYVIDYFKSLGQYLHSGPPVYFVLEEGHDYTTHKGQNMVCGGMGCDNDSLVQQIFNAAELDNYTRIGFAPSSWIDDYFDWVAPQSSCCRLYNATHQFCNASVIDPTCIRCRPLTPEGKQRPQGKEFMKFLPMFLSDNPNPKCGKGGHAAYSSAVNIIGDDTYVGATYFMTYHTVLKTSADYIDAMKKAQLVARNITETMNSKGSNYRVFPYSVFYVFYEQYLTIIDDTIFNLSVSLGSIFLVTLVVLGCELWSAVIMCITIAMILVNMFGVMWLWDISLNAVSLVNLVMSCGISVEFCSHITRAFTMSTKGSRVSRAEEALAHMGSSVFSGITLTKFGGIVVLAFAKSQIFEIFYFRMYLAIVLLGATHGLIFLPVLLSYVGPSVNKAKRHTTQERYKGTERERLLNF

[2] = system: T2, human NPC1; test: P-X cross-linking to purified NPC1; format: binding; conditions: for competition with cross-linking of P-X to purified NPC1: 0.3 μM P-X, amphipol-reconstituted NPC1 without detergent, in-gel fluorescence
T2 construct: Strep-tag; made in house; host or cells: HEK-293S GnTI- cells (baculovirus-mediated transduction)
Description: To determine the binding site for itraconazole on NPC1, we expressed and purified the NPC1 protein using n-dodecyl β-D-maltoside (DDM) as the detergent. The protein was then incorporated into amphipol A8-35 and the detergent was removed with bio-beads and further separated by gel filtration in phosphate buffered saline (PBS).
For Cross-Linking of P-X to purified NPC1 protein, each reaction contained 0.5 μg of indicated protein, 0.3 μM P-X, and various amounts of itraconazole in a final volume of 100 μL of buffer containing 50 mM Hepes pH7.5 and 150 mM NaCl with or without 0.1% Digitonin (Calbiochem). After incubation for 1 h at 37 °C, the mixture was subjected to UV cross-linking for 10 min and then tagged with Alexa Fluor 532 by means of copper-catalyzed azide-alkyne cycloaddition (click chemistry)[22],[41]. The reactions were carried out by mixing an aliquot of each mixture (50 μL), in a final volume of 58.5 μL, with 3 μL of 1.7 mM Tris[(1-benzyl-1H-1,2,3-triazol-4-yl) methyl] amine (TBTA), 2 μL of 50 mM CuSO4, 1 μL of 50 mM Tris(2-carboxyethyl) phosphine (TCEP), 1.5 μL 10% SDS and 1 μL of 1.25 mM Alexa Fluor 532 azide. The mixture was incubated at room temperature for 1 h.
To visualize the fluorescent-labeled proteins by in-gel fluorescence, 20 μL. aliquots of each sample were mixed with 4x loading dye and subjected to 8% SDS/PAGE, after which the gels were scanned with a Typhoon image scanner (GE Healthcare; filter setting: excitation, […]; emission, 555 nm; high sensitivity). After scanning the gel, the proteins were transferred to nitrocellulose and blotted with rabbit monoclonal anti-NPC1 as indicated in the figure legends.
Human NPC1 protein was expressed and purified as previously described, except for using Strep-tag instead of His-tag. Briefly, the protein was expressed using baculovirus-mediated transduction of mammalian HEK-293S GnTI^− cells (ATCC, CRL-3022). At 48 h post infection, the cells were disrupted by sonication in buffer B, containing 20 mM Hepes, pH7.5, 150 mM NaCl with 1 mM PMSF and 5 μg/mL leupeptin. After low speed centrifugation, the resulting supernatant was incubated in buffer B with 1% (w/v) DDM for 1 h at 4 °C. The lysate was centrifuged again, and the supernatant was loaded onto a Strep-Tactin affinity column (IBA). After washing twice, the protein was eluted in 20 mM Hepes, pH7.5, 150 mM NaCl, 2.5 mM desthiobiotin, 0.02% DDM and concentrated. The concentrated protein was further purified by Superdex 200 increase column (GE Healthcare) in buffer B with 0.02% DDM. The peak fractions were mixed with amphipol A8-35 (Anatrace) at 1:3 (w/w) for 4 h. Detergent was removed with Bio-Beads (Bio-Rad) overnight and further separation on a Superdex 200 increase column in PBS (Sigma-Aldrich). […]

Compound	inhibition of P-X cross-linking to NPC1 [1]	cross-linking of P-X to NPC1 in cultured cells ([1]; added at nanomolar concentration)	cross-linking of P-X to purified NPC1 ([2]; amphipol-reconstituted NPC1 in PBS without detergent)	cross-linking of P-X to purified NPC1 ([2]; protein solubilized in digitonin)	competition with cross-linking of P-X to purified NPC1 [2]
CC(=O)N1CCN(c2ccc(OCC3COC(Cn4ccnc4)(c4ccc(Cl)cc4Cl)O3)cc2)CC1 (stereo not shown) [Ketoconazole, ketoconazole]	did not block				
C#CCOc1ccc(C(=O)c2ccc(C(=O)OC(C)C(CC)n3ncn(-c4ccc(N5CCN(c6ccc(OCC7COC(Cn8cncn8)(c8ccc(F)cc8F)O7)cc6)CC5)cc4)c3=O)cc2)cc1 (stereo not shown) [P-X]		can be cross-linked	can cross-link	not when the protein was solubilized in digitonin	
CCC(C)n1ncn(-c2ccc(N3CCN(c4ccc(OCC5COC(Cn6cncn6)(c6ccc(Cl)cc6Cl)O5)cc4)CC3)c(Br)c2)c1=O (stereo not shown) [I-Br]					binds to NPC1 in a similar manner to the itraconazole mixture; also recorded: competes
CCC(C)n1ncn(-c2ccc(N3CCN(c4ccc(OCC5COC(Cn6cncn6)(c6ccc(Cl)cc6Cl)O5)cc4)CC3)cc2)c1=O (stereo not shown) [Itraconazole mixture, itraconazole]	inhibited				competed
